Assay results reported in patent US7390923B2, “Propionamide derivatives useful as androgen receptor modulators” (Orion Corporation, priority 2003, dated 2008).

How the values were obtained:
androgen receptor (AR) = target: T1, androgen receptor (AR) (Rattus norvegicus, UniProt P15207); test: AR binding assay, competition with [3H]-mibolerone binding in rat ventral prostate cytosol; details: 1 nM [3H]-mibolerone, overnight at 0° C.
T1 construct: Ventral prostates were obtained form rats castrated 24 h prior to sacrifice; from tissue; host or cells: rat ventral prostate cytosol (castrated rats, charcoal-treated)
T1 sequence (P15207 1-902): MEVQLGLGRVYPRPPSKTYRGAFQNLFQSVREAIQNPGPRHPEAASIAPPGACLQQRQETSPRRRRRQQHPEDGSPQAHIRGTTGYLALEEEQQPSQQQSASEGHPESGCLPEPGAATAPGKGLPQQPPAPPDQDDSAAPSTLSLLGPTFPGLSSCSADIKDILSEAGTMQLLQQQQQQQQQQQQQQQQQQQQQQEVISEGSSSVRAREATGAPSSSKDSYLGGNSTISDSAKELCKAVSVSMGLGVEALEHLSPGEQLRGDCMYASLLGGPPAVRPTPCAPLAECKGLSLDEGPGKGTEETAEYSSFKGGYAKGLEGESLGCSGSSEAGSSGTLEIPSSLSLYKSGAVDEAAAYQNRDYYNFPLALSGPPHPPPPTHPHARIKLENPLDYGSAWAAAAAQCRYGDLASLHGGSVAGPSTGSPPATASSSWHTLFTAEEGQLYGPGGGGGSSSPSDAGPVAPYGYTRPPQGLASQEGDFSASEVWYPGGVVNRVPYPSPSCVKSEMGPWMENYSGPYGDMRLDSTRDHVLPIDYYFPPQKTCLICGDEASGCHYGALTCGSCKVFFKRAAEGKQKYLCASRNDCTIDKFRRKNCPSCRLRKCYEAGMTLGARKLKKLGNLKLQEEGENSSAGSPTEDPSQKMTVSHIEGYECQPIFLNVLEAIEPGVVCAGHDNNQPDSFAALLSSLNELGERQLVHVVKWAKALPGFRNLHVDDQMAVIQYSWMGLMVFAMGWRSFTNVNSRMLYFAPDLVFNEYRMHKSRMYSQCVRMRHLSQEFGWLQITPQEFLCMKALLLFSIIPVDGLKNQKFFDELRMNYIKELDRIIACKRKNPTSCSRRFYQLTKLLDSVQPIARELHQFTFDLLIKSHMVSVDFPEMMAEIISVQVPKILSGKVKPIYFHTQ
Experimental: Ventral prostates were obtained form rats castrated 24 h prior to sacrifice. Fresh prostate was minced and washed with Buffer A (Schilling and Liao, Prostate, 5:581-588, 1984). The minces were then homogenized in 3× volume of Buffer A containing protease inhibitors (Complete, Mini, EDTA-free Roche). The homogenate was centrifuged at 30000 g for 30 min. The resultant supernatants were treated with 1×volume of dextran-coated charcoal solution (12.5 g activated charcoal, 12.5 g dextran per liter of buffer A) to remove endogenous steroids. The samples were incubated for 5 min and centrifuged at 16000 g for 10 min. Aliquots of the charcoal-treated cytosol were taken for androgen receptor assays. All procedures were carried out at 0-4° C.
Cytosol androgen receptor concentration was determined as described (Isomaa et al., Endocrinology, 111: 833-843, 1982) with minor modifications. Cytosol preparations were prepared as described above, and bound and free steroids were separated by treatment with an equal volume of dextran-charcoal suspension for 5 min at 4° C. followed by centrifugation at 16000 g for 10 min. Bound radioactivity was determined by counting supernatant fractions in 1 ml of OptiPhase HiSafe3 or OptiPhase Supermix (PerkinElmer).
Cytosol preparations were labelled with 1 nM [^3H]-mibolerone overnight at 0° C. (total). To determine AR binding activity of the compounds of the present invention (test compounds), the ability of test compounds to compete with [^3H]7α,17α-dimethyl-17β-hydroxy-4-estren-3-one ([^3H]-mibolerone) binding was studied. 1 nM [^3H]-mibolerone and test compounds in two concentrations (0.2 and 2 uM) were incubated overnight at 0° C. To determine non-specific binding, parallel incubations were carried out using 1 nM concentration [^3H]-mibolerone with 500-fold molar excess of unlabelled testosterone. Two to four replicates were used for each sample. After incubation, bound and free steroids were separated as described above and bound radioactivity was determined. The ability of the test compounds to bind AR is reported as reduction in bound radioactivity obtained with 1 nM [^3H]-mibolerone. The results (% inhibition) were calculated as: % inhibition=100−(100×(averagetest compound/averagetotal)).

AR = target: T2, AR (Rattus norvegicus, UniProt P15207); test: AR agonism and antagonism in immature male rats, 3-day assay, relative organ weights
T2 sequence (P15207 1-902): T1 sequence (P15207 1-902)
Experimental: The title compound of Example 3, abbreviated here as compound A, was further studied in in vivo experiment. The agonism and antagonism of the compound with subcutaneous dosing was tested in immature male Spraque Dawley rat 3-day assay by analyzing the relative weights of ventral prostate, seminal vesicle, and levator ani-muscle. Testosterone propionate was used as a reference compound.
Testosterone propionate (abbreviated here TP) and compound A were first dissolved into DMSO and then into the vehicle sesame oil. Sprague-Dawley untreated male rats (18-19 days old) weighing about 50 g were used in the experiment. Rats were weighed and randomly distributed into five groups, with 5 animals per group (Table 1). Compound A (doses 2 and 20 mg/kg) and testosterone propionate (dose 5 mg/kg) were given subcutaneously (s.c.) into the neck/back of the animals at a constant volume of 100 microl dosing solution/animal/day. The animals were dosed once daily for three days, and clinical signs were recorded during dosing. At the end of the study, animals were weighed and anaesthetised by CO2 asphyxiation. Ventral prostate, seminal vesicles, and levator ani-muscle were dissected out, chilled, and weighed. For statistical analysis, the weights of all organs were normalized to body weights, and analyzed for statistical significant difference by single-factor ANOVA.
In the Figure, “a” means agonism, p<0.01 compared to vehicle group, “b” means antagonism, p<0.05 compared to testosterone group, bars represent mean±SEM.

[1] = 20 mg/kg s.c. once daily for three days, immature male rat
[2] = 5 mg/kg s.c. once daily for three days, immature male rat

Row | SMILES | inhibition at 0.2 µM (androgen receptor (AR); test compound 0.2 μM) [%] | inhibition at 2 µM (androgen receptor (AR); test compound 2.0 μM) [%] | relative weight of levator ani-muscle (AR; [1]) | relative weight of the prostate (AR; [1]) | antagonistic activity in seminal vesicle (AR; TP 5 mg/kg + compound A 20 mg/kg s.c., p<0.05 compared to testosterone group) | androgenic and anabolic activity (AR; s.c. 2 and 20 mg/kg, immature male rat, FIG. 1) | effect on the body weights (AR; s.c. once daily for three days, immature male rat, data not shown) | tissue selectivity compared with testosterone propionate (AR; s.c., immature male rat) | relative weight of levator ani-muscle (AR; [2]) | relative weight of seminal vesicle (AR; [2]) | relative weight of ventral prostate (AR; [2]) | effect on the body weights (AR; rat, in vivo, sc)
1 | CC(=O)Nc1ccc(OC[C@](C)(O)C(=O)Nc2ccc([N+](=O)[O-])c(C)c2)cc1 [Example 3, (2S)-3-(4-Acetylaminophenoxy)-2-hydroxy-2-methyl-N-(3-methyl-4-nitrophenyl)propionamide] | 103 | 115 | clearly increased | only minimally | significant antagonistic activity | shows androgenic and anabolic activity | Neither testosterone propionate nor compound A had any effect | showed tissue selectivity | – | – | – | –
2 | CCC(=O)O[C@H]1CC[C@H]2[C@@H]3CCC4=CC(=O)CC[C@]4(C)[C@H]3CC[C@]12C [testosterone propionate, Testosterone propionate, reference compound] | – | – | – | – | – | – | – | – | increased significantly | increased significantly | increased significantly | Neither testosterone propionate nor compound A had any effect
